Assay results from ChEMBL document CHEMBL1201862, “PubChem BioAssay data set” (2004).
The source made the active and inactive calls. Unless noted, the calls are words filed in the database; no cut-off is given here.

How the values were obtained:
[1] = tested on: INS1; experiment: beta cell apoptosis inhibitors, cytokine rescue, dose response, luminescence, retest (AID 449756); assay type: functional, cell-based; settings: Rattus norvegicus, INS1;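 further: cell death triggered by IL-1 beta plus TNF-alpha plus IFN-gamma mixture; protective hits raise ATP signal compared with cytokine alone wells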
[2] = target: T1, Sentrin-specific protease 6 (Homo sapiens, UniProt Q9GZR1); assay type: functional;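 further: Luminescence-based dose-response confirmatory assay of SENP6 inhibition, following up an ultra-high-throughput screen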
T1 sequence (Q9GZR1 whole entry): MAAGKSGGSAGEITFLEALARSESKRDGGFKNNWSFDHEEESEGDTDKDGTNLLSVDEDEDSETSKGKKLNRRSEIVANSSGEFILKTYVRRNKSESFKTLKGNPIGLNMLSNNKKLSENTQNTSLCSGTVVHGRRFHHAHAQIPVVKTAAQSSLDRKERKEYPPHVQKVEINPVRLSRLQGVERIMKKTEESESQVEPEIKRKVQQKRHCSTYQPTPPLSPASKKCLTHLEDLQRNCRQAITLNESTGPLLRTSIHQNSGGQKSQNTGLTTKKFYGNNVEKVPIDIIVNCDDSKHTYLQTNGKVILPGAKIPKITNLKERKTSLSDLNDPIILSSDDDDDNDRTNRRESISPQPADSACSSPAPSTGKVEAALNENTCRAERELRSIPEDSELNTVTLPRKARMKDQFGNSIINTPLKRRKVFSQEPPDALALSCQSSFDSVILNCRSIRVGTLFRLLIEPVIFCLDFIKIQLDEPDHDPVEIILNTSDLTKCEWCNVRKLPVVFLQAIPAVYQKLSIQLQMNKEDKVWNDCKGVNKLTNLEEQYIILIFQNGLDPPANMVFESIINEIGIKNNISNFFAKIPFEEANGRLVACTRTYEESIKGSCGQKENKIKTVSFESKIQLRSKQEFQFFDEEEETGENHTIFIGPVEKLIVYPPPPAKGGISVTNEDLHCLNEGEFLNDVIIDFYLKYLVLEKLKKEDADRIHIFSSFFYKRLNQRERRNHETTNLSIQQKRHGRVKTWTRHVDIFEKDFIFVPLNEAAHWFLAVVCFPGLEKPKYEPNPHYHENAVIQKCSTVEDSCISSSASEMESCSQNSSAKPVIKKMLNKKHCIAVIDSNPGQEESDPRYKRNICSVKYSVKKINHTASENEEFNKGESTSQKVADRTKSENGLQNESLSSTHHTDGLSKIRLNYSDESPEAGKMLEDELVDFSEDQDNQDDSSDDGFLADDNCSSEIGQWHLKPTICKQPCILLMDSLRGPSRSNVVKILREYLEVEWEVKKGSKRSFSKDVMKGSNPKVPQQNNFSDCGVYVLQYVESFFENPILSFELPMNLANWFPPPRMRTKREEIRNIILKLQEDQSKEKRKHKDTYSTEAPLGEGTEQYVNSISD

[3] = target: T2, Tyrosine-protein phosphatase non-receptor type 22 (Homo sapiens, UniProt Q9Y2R2); experiment: inhibitors of LYP phosphatase, biochemical, fluorescence intensity, uHTS (AID 1779)
T2 sequence (Q9Y2R2 whole entry): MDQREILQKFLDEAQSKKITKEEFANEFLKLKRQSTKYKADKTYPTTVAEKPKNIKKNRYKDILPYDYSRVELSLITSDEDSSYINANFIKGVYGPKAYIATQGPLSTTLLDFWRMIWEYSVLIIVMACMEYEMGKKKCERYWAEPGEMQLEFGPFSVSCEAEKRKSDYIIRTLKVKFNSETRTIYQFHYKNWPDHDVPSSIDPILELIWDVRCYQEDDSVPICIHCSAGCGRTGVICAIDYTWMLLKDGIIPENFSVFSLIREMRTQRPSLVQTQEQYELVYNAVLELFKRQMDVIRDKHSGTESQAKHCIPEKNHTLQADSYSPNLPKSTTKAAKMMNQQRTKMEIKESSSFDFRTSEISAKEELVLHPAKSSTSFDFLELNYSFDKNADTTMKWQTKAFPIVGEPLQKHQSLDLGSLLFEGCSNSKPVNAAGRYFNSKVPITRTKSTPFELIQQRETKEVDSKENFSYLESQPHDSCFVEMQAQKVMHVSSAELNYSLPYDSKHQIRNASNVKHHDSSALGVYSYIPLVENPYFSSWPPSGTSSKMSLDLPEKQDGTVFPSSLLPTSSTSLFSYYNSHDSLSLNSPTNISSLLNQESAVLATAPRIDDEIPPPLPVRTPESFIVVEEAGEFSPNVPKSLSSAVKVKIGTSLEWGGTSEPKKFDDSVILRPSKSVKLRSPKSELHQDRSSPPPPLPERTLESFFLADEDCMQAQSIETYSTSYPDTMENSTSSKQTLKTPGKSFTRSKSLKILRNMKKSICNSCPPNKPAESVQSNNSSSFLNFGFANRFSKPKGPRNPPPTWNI

[4] = target: T3, Tyrosine-protein phosphatase non-receptor type 12 (Homo sapiens, UniProt Q05209); experiment: SAR Selectivity Analysis of small molecule inhibitors of PEST using pCAP in a fluorescence assay. [Related pubchem assays (depositor defined):AID1779, AID1784, AID2135]; assay type: functional
T3 sequence (Q05209 whole entry): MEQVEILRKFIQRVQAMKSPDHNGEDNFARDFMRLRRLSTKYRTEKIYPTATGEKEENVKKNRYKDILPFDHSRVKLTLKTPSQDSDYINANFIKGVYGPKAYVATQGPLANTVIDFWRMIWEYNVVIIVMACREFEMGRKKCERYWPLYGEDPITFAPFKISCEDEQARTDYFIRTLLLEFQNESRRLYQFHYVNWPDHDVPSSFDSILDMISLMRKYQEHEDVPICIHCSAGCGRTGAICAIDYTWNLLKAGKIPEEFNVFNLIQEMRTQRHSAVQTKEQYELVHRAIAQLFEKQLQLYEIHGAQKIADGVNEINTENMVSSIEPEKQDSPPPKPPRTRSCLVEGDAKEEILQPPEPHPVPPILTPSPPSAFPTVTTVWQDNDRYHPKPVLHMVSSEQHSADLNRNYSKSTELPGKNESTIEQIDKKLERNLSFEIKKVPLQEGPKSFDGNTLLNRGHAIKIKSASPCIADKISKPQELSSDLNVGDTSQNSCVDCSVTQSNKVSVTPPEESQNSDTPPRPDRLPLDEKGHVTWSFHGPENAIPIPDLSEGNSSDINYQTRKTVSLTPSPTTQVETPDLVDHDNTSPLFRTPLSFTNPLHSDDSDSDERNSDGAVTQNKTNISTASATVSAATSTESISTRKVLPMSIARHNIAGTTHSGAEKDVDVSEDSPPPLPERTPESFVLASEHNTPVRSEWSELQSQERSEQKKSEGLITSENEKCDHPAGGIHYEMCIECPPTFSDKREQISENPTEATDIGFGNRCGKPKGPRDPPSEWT

[5] = target: T2, Tyrosine-protein phosphatase non-receptor type 22; experiment: PubChem AID 2135

Row | SMILES | AC50 [1] | IC50 [2] | IC50 [3] | IC50 [4] | IC50 [5]
1 | COc1ccc(Nc2ccc3c(c2)=NC2(CCCCC2)[N+]=3[O-])cc1 | 1.67 µM (active) | 6.28 µM (active) |  |  | 
2 | COc1ccc(/C=C2\SC(=S)N(CCC(=O)Nc3ccc(C(=O)O)cc3)C2=O)cc1OC |  |  | 4.29 µM (active) | 1.13 µM (active) | 2.96 µM (active)
